Data reported in US20090291939A1, “Treating Alcohol And Or Substance Abuse By Antagonizing Alpha 2 Adrenergic Receptors With Weak Dopamine Blocking” (priority 2002, published 2009).
“Also recorded” adds a separate entry of the source.

Key:
[1] = test system: Syrian golden hamsters; assay: Free choice alcohol drinking in Syrian golden hamsters with daily s.c. drug treatment; details: for body weight, change from baseline: 9-day treatment period; for alcohol consumption during post-hoc period: post-hoc: CLOZ animals 2 days lower dose then 22 days vehicle, HAL animals 0.6, 0.8, then 1 mg/kg over 15 days
[2] = test system: golden hamster; details: cited from earlier work
[3] = test system: animals; details: cited from earlier work

With CN1CCN(C2=Nc3cc(Cl)ccc3Nc3ccccc32)CC1 [CLOZ, clozapine] the “body weight, change from baseline” value [1] was “lost weight”, the “time to onset of decrease in alcohol drinking after first injection” value ([1]; first CLOZ injection 2 mg/kg s.c., treatment day #2) was no more than 27 h and the “alcohol consumption, % of baseline” value ([1]; treatment period, by day #6, after four days of 4 mg/kg/day CLOZ s.c.) was 10 % of baseline.

In the case of O=c1c(-c2ccc(O)cc2)coc2cc(O[C@@H]3O[C@H](CO)[C@@H](O)[C@H](O)[C@H]3O)ccc12 [Daidzin], the alcohol drinking [2] is given as “decreases alcohol drinking”.

With O=C(CCCN1CCC(O)(c2ccc(Cl)cc2)CC1)c1ccc(F)cc1 [HAL, haloperidol] the “body weight, change from baseline” value [1] was “stayed the same”, the “alcohol drinking, change during treatment period” value ([1]; 9-day treatment: CLOZ 2 then 4 mg/kg, HAL 0.2 then 0.4 mg/kg, s.c. daily) was “unchanged” and the “alcohol use over full 24 days of treatment” value ([1]; HAL dose ranging from 0.2 mg/kg to 1 mg/kg, including 11 days at highest dose) was “no evidence of a decrease in alcohol use”. For the same compound, the “alcohol consumption during post-hoc period” value [1] was “did not change; also recorded: no change in alcohol drinking” and the “alcohol consumption during post-hoc period” value ([1]; listed as haloperidol) was “no decrease in drinking”.

For C=CCN1CC[C@]23c4c5ccc(O)c4O[C@H]2C(=O)CC[C@@]3(O)[C@H]1C5 [naloxone], the alcohol consumption [3] is listed as “inhibit alcohol consumption”.

For O=C1CC[C@@]2(O)[C@H]3Cc4ccc(O)c5c4[C@@]2(CCN3CC2CC2)[C@H]1O5 [naltrexone], the alcohol consumption [3] is listed as “inhibit alcohol consumption”.

For CN[C@H]1CC[C@@H](c2ccc(Cl)c(Cl)c2)c2ccccc21 [sertraline], the alcohol consumption [3] is given as “inhibit alcohol consumption”.
